Experimental data: patent US8765779B2, “Tricyclic derivatives and their pharmaceutical use and compositions” (Cephalon, Inc., priority 2009, dated 2014)
Structures can show the parent of a compound that is named as a salt.

biological target: T1, human 5-HT6 receptor (Homo sapiens, UniProt P50406); test: Human 5-HT6 Receptor Binding Assay ([3H]LSD displacement, scintillation beads); details: membranes of CHO-K1 cells with recombinant human 5-HT6, 4 nM [3H]LSD; Table 1, class symbols; read-out: h5-HT6 (Ki)
T1 construct: host or cells: CHO-K1 cells, stably transfected; membranes prepared in house
T1 sequence (P50406 whole entry): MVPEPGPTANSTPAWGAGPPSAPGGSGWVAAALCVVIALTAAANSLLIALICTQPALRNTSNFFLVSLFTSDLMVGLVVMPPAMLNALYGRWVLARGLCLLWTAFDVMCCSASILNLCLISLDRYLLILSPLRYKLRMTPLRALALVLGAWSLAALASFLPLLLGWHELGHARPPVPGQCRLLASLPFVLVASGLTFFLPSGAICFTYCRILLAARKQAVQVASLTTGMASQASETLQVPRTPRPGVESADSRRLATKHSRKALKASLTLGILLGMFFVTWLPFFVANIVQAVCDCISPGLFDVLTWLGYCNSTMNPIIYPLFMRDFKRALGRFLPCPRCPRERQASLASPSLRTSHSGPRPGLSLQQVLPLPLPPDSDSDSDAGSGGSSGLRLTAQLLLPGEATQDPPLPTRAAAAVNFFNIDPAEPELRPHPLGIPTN

Row | Structure (SMILES) | Ki
1 | CC1(C)NCCc2c1oc1cc(S(=O)(=O)c3cccnc3C(F)(F)F)ccc21 [Example 378] | < 0.5 µM
2 | O=[N+]([O-])c1ccc(S(=O)(=O)Oc2ccc3c(c2)C2CCNCC2O3)cc1 (stereo not shown) [Example 749] | > 1 µM
3 | CC12CCN(C3CCC3)CC1Oc1ccc(OS(=O)(=O)Cc3ccccc3)cc12 (stereo not shown) [Example 805] | > 1 µM
4 | [O-][S+](c1ccc(Cl)c(C(F)(F)F)c1)c1ccc2c3c(oc2c1)CNCC3 (stereo not shown) [Example 209] | < 0.5 µM
5 | Cc1c(Cl)cccc1S(=O)(=O)Oc1ccc2c(c1)C1(C)CCNCC1O2 (stereo not shown) [Example 767] | > 1 µM
6 | O=S(=O)(c1ccc2c(c1)OC1CNCCC21)c1cccnc1F (stereo not shown) [Example 382] | < 0.5 µM
7 | O=S(=O)(c1cc(F)cc(OCC(F)(F)F)c1)c1ccc2c(c1)OC1CNCCC21 (stereo not shown) [Example 415] | < 0.5 µM
8 | O=S(=O)(Oc1ccc2c(c1)OC1CNCCC21)c1cc2ccccc2o1 (stereo not shown) [Example 655] | < 0.5 µM
9 | O=S(=O)(c1cccc(F)c1)c1ccc2c3c(oc2c1)C(CC(F)(F)F)NCC3 (stereo not shown) [Example 507] | < 0.5 µM
10 | O=S(=O)(c1ccc2c3c(oc2c1)CNCC3)c1ccccn1 [Example 345] | < 0.5 µM
11 | COc1cncc(S(=O)(=O)c2ccc3c4c(oc3c2)C2(CCOC2)NCC4(C)C)c1 (stereo not shown) [Example 454] | < 0.5 µM
12 | CC1(C)NCCc2c1oc1cc(S(=O)(=O)c3ccc(F)c(Cl)c3)ccc21 [Example 18, 7-[(3-chloro-4-fluorophenyl)sulfonyl]-1,1-dimethyl-1,2,3,4-tetrahydro[1]benzofuro[2,3-c]pyridine] | < 0.5 µM
13 | O=S(=O)(Nc1ccc(Cl)cc1Cl)c1ccc2c(c1)C1CCNCC1O2 (stereo not shown) [Example 844] | > 1 µM
14 | CC1(C2CC2)NCCc2c1oc1cc(S(=O)(=O)c3cccc(F)c3)ccc21 (racemic) [Example 29, 1-cyclopropyl-7-[(3-fluorophenyl)sulfonyl]-1-methyl-1,2,3,4-tetrahydro[1]benzofuro[2,3-c]pyridine] | < 0.5 µM
15 | N#Cc1ccccc1COc1cccc(S(=O)(=O)c2ccc3c(c2)OC2CNCCC32)c1 (stereo not shown) [Example 550] | 0.5 to 1 µM
16 | CCC1(C)NCCc2c1oc1cc(S(=O)(=O)c3cccc(F)c3)ccc21 (racemic) [Example 27, 1-ethyl-7-[(3-fluorophenyl)sulfonyl]-1-methyl-1,2,3,4-tetrahydro[1]benzofuro[2,3-c]pyridine] | < 0.5 µM
17 | O=S(=O)(c1cccc(F)c1)c1ccc2c3c(oc2c1)C1(CCOC1)NCC3 (single isomer, unassigned) [Example 53, 7-[(3-fluorophenyl)sulfonyl]-3,4,4′,5′-tetrahydro-2H-spiro[1-benzofuro[2,3-c]pyridine-1,3′-furan]] | < 0.5 µM
18 | O=S(=O)(c1cncc(Cl)c1)c1ccc2c3c(oc2c1)CNCC3 [Example 437] | < 0.5 µM
19 | COc1cccc(S(=O)(=O)c2ccc3oc4c(c3c2)CCNC4)c1 [Example 246] | < 0.5 µM
20 | Cc1nc(S(=O)(=O)Oc2ccc3c(c2)OC2CNCCC32)cn1C (stereo not shown) [Example 645] | > 1 µM
21 | O=S(=O)(c1ccc2c3c(oc2c1)CNCC3)c1ccccc1F [Example 231] | < 0.5 µM
22 | [O-][S+](c1ccc2oc3c(c2c1)CCNC3)c1cccnc1F (stereo not shown) [Example 444] | > 1 µM
23 | CC1(C)NCCC2c3ccc(S(=O)(=O)c4cccc(F)c4)cc3OC21 (stereo not shown) [Example 624, 7-[(3-Fluorophenyl)sulfonyl]-1,1-dimethyl-1,2,3,4,4a,9a-hexahydro[1]benzofuro[2,3-c]pyridine] | < 0.5 µM
24 | CCCOc1cccc(S(=O)(=O)c2ccc3c(c2)OC2CNCCC32)c1 (stereo not shown) [Example 572] | < 0.5 µM
25 | O=S(=O)(c1ccccc1)c1ccc2c3c(oc2c1)CN(CC(F)(F)F)CC3 [Example 598] | < 0.5 µM

Row | Structure (SMILES) | Ki
26 | COc1cccc(S(=O)(=O)c2ccc3c(c2)OC2CNCCC32)c1 (stereo not shown) [Example 118] | < 0.5 µM
27 | CC12CCNCC1Oc1ccc(S(=O)(=O)c3ccccc3)cc12 (stereo not shown) [Example 62, 4a-Methyl-6-(phenylsulfonyl)-1,2,3,4,4a,9a-hexahydro[1]benzofuro[2,3-c]pyridine hydrochloride] | > 1 µM
28 | Cc1ccncc1S(=O)(=O)c1ccc2c3c(oc2c1)C(C)(C)NCC3 [Example 379] | < 0.5 µM
29 | O=S(=O)(c1cccc(F)c1)c1ccc2oc3c(c2c1)CCNC3C1CC1 (stereo not shown) [Example 517] | < 0.5 µM
30 | CC12CCNCC1Oc1ccc(OS(=O)(=O)c3ccccc3)cc12 (stereo not shown) [Example 759] | > 1 µM
31 | CC(C)c1ccc(S(=O)(=O)Oc2ccc3c(c2)OC2CNCCC32)cc1 (stereo not shown) [Example 795] | < 0.5 µM
32 | Cc1ccc(S(=O)(=O)Oc2ccc3c(c2)OC2CNCCC32)cc1Cl (stereo not shown) [Example 659] | > 1 µM
33 | O=S(=O)(c1ccccc1)c1ccc2c3c(oc2c1)CN(CCCO)CC3 [Example 595] | < 0.5 µM
34 | CC12CCNCC1Oc1ccc(S(=O)(=O)c3cc[n+]([O-])cc3)cc12 (racemic) [Example 14, 4a-methyl-6-[(1-oxidopyridin-4-yl)sulfonyl]-1,2,3,4,4a,9a-hexahydro[1]benzofuro[2,3-c]pyridine] | > 1 µM
35 | O=S(=O)(Oc1ccc2c(c1)OC1CNCCC21)c1ccc(-c2ccon2)s1 (stereo not shown) [Example 680] | < 0.5 µM
36 | O=S(=O)(c1ccc(C(F)(F)F)cc1)c1ccc2oc3c(c2c1)CCNC3 [Example 278] | < 0.5 µM
37 | COCC1NCCc2c1oc1ccc(S(=O)(=O)c3cccc(F)c3)cc21 (stereo not shown) [Example 515] | > 1 µM
38 | O=S(=O)(Oc1ccc2c(c1)C1CCNCC1O2)c1ccc(F)c(Cl)c1 (stereo not shown) [Example 723] | 0.5 to 1 µM
39 | O=S(=O)(c1ccc2c(c1)OC1CNCCC21)c1ccccn1 (stereo not shown) [Example 331] | 0.5 to 1 µM
40 | O=S(=O)(c1ccccc1)c1ccc2c3c(oc2c1)C1(CCCOC1)NCC3 (single isomer, unassigned) [Example 544, 7-(Phenylsulfonyl)-3,4,5′,6′-tetrahydro-2H,4′H-spiro[1-benzofuro[2,3-c]pyridine-1,3′-pyran]hydrochloride] | 0.5 to 1 µM
41 | O=S(=O)(Oc1ccc2c(c1)C1CCNCC1O2)c1cc2ccccc2o1 (stereo not shown) [Example 714] | < 0.5 µM
42 | O=S(=O)(Oc1ccc2c(c1)C1CCNCC1O2)c1cccc(Cl)c1 (stereo not shown) [Example 710] | < 0.5 µM
43 | O=S(=O)(Oc1ccc2c(c1)C1CCNCC1O2)c1cccc(Cl)c1Cl (stereo not shown) [Example 740] | < 0.5 µM
44 | COc1c(F)cc(F)cc1S(=O)(=O)c1ccc2c(c1)OC1CNCCC21C (stereo not shown) [Example 486] | < 0.5 µM
45 | CN1CCC2c3ccc(OS(=O)(=O)c4ccc(Cl)cc4)cc3OC2C1 (stereo not shown) [Example 799] | 0.5 to 1 µM
46 | CC1OCCC12NCCc1c2oc2cc(S(=O)(=O)c3cccc(F)c3)ccc12 (single isomer, unassigned) [Example 57, 7-[(3-Fluorophenyl)sulfonyl]-2′-methyl-3,4,4′,5′-tetrahydro-2H-spiro[1-benzofuro[2,3-c]pyridine-1,3′-furan]] | < 0.5 µM
47 | CC12CCNCC1Oc1cc(S(=O)(=O)c3cccc(OC(F)(F)F)c3)ccc12 (stereo not shown) [Example 358, 4a-methyl-7-{[3-(trifluoromethoxy)phenyl]sulfo-nyl}-1,2,3,4,4a,9a-hexahydro[1]benzofuro[2,3-c]pyridine] | < 0.5 µM
48 | O=S(=O)(c1cccc(F)c1)c1ccc2c(c1)C1CCNCC1O2 (stereo not shown) [Example 168] | 0.5 to 1 µM
49 | CC(=O)N1CCc2c(oc3cc(S(=O)(=O)c4cccc(Cl)c4)ccc23)C1 [Example 615, 1-{7-[(3-Chlorophenyl)sulfonyl]-3,4-dihydro[1]benzofuro[2,3-c]pyridin-2(1H)-yl}ethanone] | < 0.5 µM
